According to patent US5206223A, “Method for inhibiting heparanase activity” (Yeda Research and Development Co. Ltd., priority 1986, dated 1993):

What was measured:
[1] = tested on: experimental autoimmune encephalomyelitis (EAE); assay: Experimental autoimmune encephalomyelitis (EAE) produced by anti-BP T lymphocytes; assay type: in vivo, Lewis rats; details: for Day of onset of EAE / Duration of EAE / % incidence of EAE / Clinical score of EAE: 0.1 mg/kg daily; for % incidence of EAE: None 100; for Clinical score of EAE: scale 1-4, None 3.0
Description: EAE is an experimental autoimmune disease with some features reminiscent of multiple sclerosis in humans. The disease is caused by T lymphocytes immunized to the basic protein (BP) of the central nervous system myelin. To test the effect of heparins on the ability of T lymphocytes to cause autoimmune disease, we used T lymphocytes sensitized against BP, either as T cell lines (Cohen, I. R. Experimental autoimmune encephalomyelitis: Pathogenesis and prevention. In: Immunoregulatory Processes in Multiple Sclerosis and Experimental Allergic Encephalomyelitis. A. A. Vandenbark and J. C. M. Raus, eds. Elsevier Biomedical Res. Amsterdam. 7:91-125 (1985)) or as populations of lymph node cells from BP immunized rats.
EAE was produced by inoculating Lewis rats with a T cell line of anti-BP T lymphocytes (10^6 cells) with anti-BP primed lymph node cells (10^7 cells) intravenously (Cohen, I. R. Experimental autoimmune encephalomyelitis: Pathogenesis and prevention. In: Immunoregulatory Processes in Multiple Sclerosis and Experimental Allergic Encephalomyelitis. A. A. Vandenbark and J. C. M. Raus, eds. Elsevier Biomedical Res. Amsterdam. 7:91-125 (1985)) One day before inoculation and daily for 10 days, the rats received either saline or the heparins.

adjuvant arthritis = details: 1000 U/rat; cited from earlier work
[2] = Partial thromboplastin time in human volunteers; assay type: in vivo; details: 3 mg (500 units) per day
Description: The effective dose of heparin, 3 mg (500 units) per day, was computed from the optimal dose per weight in mice and rats and corrected for surface area. […] (not shown).

DTH skin response = details: human, in vivo
rheumatoid arthritis = assay: Treatment of patients with rheumatoid arthritis; assay type: in vivo, human; details: about 300-500 units daily for 1 month, three patients
Description: As DTH reactions to self antigens are involved in autoimmune diseases, we have begun to test low dose heparin (about 300-500 units daily) in patients with rheumatoid arthritis.

heparanase = assay: Heparanase activity of I-LNC from heparin-treated OX-immunized mice; details: 5 μg per injection in vivo, I-LNC incubated 48 h with labeled ECM
Description: Mice were immunized with OX on days 0 and 5. Some of the mice were treated with heparin (5 μg or 25 μg per injection) 18 h before and 2, 10 and 20 h after the day 5 immunization with OX. On day 6, the I-LNC were removed and tested for heparanase activity by incubation for 48 h with labeled ECM. Heparan sulfate degradation products are shown for I-LNC from the following groups of mice: No heparin; 25 μg heparin X; 5 μg heparin-0. The LNC of control mice not immunized to OX had no heparanase activity (not shown).
To learn if these effects were associated with inhibition of endogenous heparanase, we treated mice with high (25 μg) or low (5 μg) doses of heparin, sensitized them to OX and tested their I-LNC for heparanase activity in vitro. […] Thus, treatment with 5 μg of heparin in vivo caused a substantial decrease of enzyme activity in sensitized lymphocytes.

DTH reaction = assay: In situ DTH: I-LNC injected directly into the ears; assay type: in vivo, mice; details: heparin 5 u.g, I-LNC intradermally into ears, 24 h
Description: If inhibition of heparanase and heparanase-dependent traffic is the major mechanism by which low dose heparin suppresses DTH, then one might be able to bypass the inhibition of DTH by bypassing the need for vascular traffic of sensitized T lymphocytes. Accordingly we treated recipient mice with an inhibitory dose (5 μg) of heparin, and then injected the donor I-LNC directly into the ears, rather than intravenously. Table 7 illustrates that putting the sensitized lymphocytes in situ bypassed the inhibitory effect on the DTH of 5 μg of heparin. Thus low dose heparin treatment appeared to inhibit DTH only when the DTH-mediat lymphocytes had to make their way to the site of the antigen by way of the circulation.
I-LNC were obtained from BALB/c mice sensitized to OX 5 days earlier. The I-LNC were centrifuged, resuspended in RPMI medium and injected intradermally (3×10^6 cells/20 μ/l) into the dorsal surface of the ears of naive recipient mice. The ears were challenged with OX immediately after cell transfer. The magnitude of DTH ear swelling was determined 24 h later.

renal allograft = details: subanticoagulant s.c. doses, 5000 U daily; cited from earlier work
skin allografts = assay: Skin allograft survival (SJL/J skin on (BALB/c×C57BL/6)F1 mice); assay type: in vivo; details: 0.05 mg/kg daily
Description: FIG. 1. Treatment with heparin (0.05 mg/kg) prevents rejection of skin allografts. Mice of hybrid strain (BALB/c×C57BL/6)F1 were grafted with skin from allogeneic SJL/J mice. The mice (20 per group) were treated daily with subcutaneous injections of saline (squares) or with heparin ("Leo", 0.05 mg/kg; diamonds) and scored for skin graft survival. Median survival for the control group was 10 days while that for the heparin treated group was 24 days.
FIG. 2. Treatment with N-desulfated, N-acetylated heparin (10 mg/kg) prevents rejection of skin allografts. Mice were grafted as described for FIG. 1 and treated daily with saline (squares) or N-desulfated, N-acetylated heparin (10 mg/kg; diamonds). The median survival of the skin allograft in the control group was 10 days while that in the treated group was 20 days.
The median survival time of the skin grafts on control mice treated with saline was […] while that on mice treated with 0.05 mg/kg daily of heparin was 26 days with maximal survival to 32 days.

## heparin
[1]; 0.02 mg daily s.c. (0.1 mg/kg), from 1 day before T lymphocyte inoculation
  EAE clinical score (FIG. 3): inhibits EAE
[1]; B: T cell line, None 5.0
  Day of onset of EAE: 6.5
[1]; B: T cell line, None 5.5
  Duration of EAE: 3.6 days
[1]; B: T cell line
  % incidence of EAE: 20%
  Clinical score of EAE: 1.0
[1]; D: primed lymph node cells, None 4.0
  Day of onset of EAE: 6.3
[1]; D: primed lymph node cells, None 5.3
  Duration of EAE: 4.0 days
[1]; D: primed lymph node cells
  % incidence of EAE: 75%
  Clinical score of EAE: 1.5
Adjuvant arthritis
  Severity of rat adjuvant arthritis: enhanced the severity of the rat adjuvant arthritis
[2]
  Partial thromboplastin time: no change in the partial thromboplastin time
DTH skin response
  Effect on the DTH response (FIG. 9): did not have a significant inhibitory effect
  Extent of induration: decreased similarly
  Mean diameter of erythema to mumps during treatment: 13.6 mm
  Mean diameter of erythema to tetanus toxoid during treatment: 16.8 mm
  Reversibility of the effect on the DTH response (FIG. 9): transient
DTH skin response; sc
  Volunteers with significantly decreased DTH response to mumps: 11/12
  Volunteers with significantly decreased DTH response to tetanus: 10/12
Rheumatoid arthritis
  Clinical improvement of severe rheumatoid arthritis: all 3 were improved
heparanase
  Heparanase activity of I-LNC (FIG. 7): lacked heparanase activity
DTH reaction; OX challenge no, no heparin 9 ± 1.0
  Ear swelling: 8 ± 1.0 ×10^-4 inch
DTH reaction; OX challenge yes, no heparin 22 ± 3.4
  Ear swelling: 20.4 ± 1.6 ×10^-4 inch
Renal allograft
  Early renal allograft function and graft survival: no effect on early graft function or graft survival
Skin allografts
  Maximal survival of skin allograft: 32 days
